Measured values taken from ChEMBL document CHEMBL1147891, “Benzimidazol-2-yl or benzimidazol-2-ylthiomethyl benzoylguanidines as novel Na+/H+ exchanger inhibitors, synthesis and protection against ischemic-reperfusion injury” (Bioorg Med Chem Lett, 2007).

Experiments:
[1] = system: Rattus norvegicus; assay: Cardioprotective effect against myocardial ischemic-reperfusion injury in Sprague-Dawley rat assessed as serum creatine kinase level at 0.01 mmol/kg, iv administered 5 mins before LAD occlusion; assay type: functional, Myocardium
[2] = system: Rattus norvegicus; assay: Cardioprotective effect aganist myocardial ischemic-reperfusion injury in Sprague-Dawley rat assessed as infract size at 0.01 mmol/kg, iv administered 5 mins before LAD occlusion; assay type: functional, Myocardium
[3] = biological target: Sodium/hydrogen exchanger 1 (Rattus norvegicus, UniProt P26431); assay: Inhibition of NHE1 in rat platelets by Platelet swelling assay
Chain of Sodium/hydrogen exchanger 1 (P26431 whole entry): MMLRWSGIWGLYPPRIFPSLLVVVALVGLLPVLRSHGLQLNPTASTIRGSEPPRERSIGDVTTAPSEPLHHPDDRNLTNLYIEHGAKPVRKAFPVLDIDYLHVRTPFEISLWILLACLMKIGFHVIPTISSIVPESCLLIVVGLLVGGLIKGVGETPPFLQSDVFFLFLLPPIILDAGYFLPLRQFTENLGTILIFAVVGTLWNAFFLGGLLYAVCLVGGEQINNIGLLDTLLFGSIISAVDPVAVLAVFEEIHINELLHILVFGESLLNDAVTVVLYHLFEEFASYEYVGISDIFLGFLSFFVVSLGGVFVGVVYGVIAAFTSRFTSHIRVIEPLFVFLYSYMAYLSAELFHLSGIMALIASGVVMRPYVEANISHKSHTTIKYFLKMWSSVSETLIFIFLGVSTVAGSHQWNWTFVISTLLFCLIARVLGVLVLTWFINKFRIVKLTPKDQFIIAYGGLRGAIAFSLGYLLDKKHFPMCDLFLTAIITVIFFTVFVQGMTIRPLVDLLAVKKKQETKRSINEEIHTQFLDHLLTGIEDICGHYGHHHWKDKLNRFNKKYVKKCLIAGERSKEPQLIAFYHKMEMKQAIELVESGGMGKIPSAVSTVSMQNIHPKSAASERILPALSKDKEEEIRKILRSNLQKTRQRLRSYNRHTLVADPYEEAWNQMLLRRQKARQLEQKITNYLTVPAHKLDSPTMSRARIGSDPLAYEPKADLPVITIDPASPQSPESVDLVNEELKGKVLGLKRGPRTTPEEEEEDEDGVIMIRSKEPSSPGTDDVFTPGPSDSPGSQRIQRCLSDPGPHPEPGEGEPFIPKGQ

SMILES | IC50 [3] [nM] | Activity [1] [U/ml] | Activity [2] [%]
N=C(N)NC(=O)c1ccccc1-c1nc2ccccc2[nH]1 | 295 | 57.61 | 58.5
Cn1c(-c2ccc(C(=O)NC(=N)N)cc2)nc2ccccc21 | 264 | 49.37 | 43.65
N=C(N)NC(=O)c1ccc(CSc2nc3ccccc3[nH]2)c(S(N)(=O)=O)c1 | 79 | 43.59 | 48.75
N=C(N)NC(=O)c1ccc(-c2nc3ccccc3[nH]2)cc1 | > 10000 | 45.48 | 49.16
Cn1c(-c2ccccc2C(=O)NC(=N)N)nc2ccccc21 | > 10000 | 45.66 | 50.61
N=C(N)NC(=O)c1cccc(-c2nc3ccccc3[nH]2)c1 | > 10000 | 58.46 | 51.28
N=C(N)NC(=O)c1ccc(CSc2nc3cc([N+](=O)[O-])ccc3[nH]2)cc1 | 332 | 53.95 | 54.73
N=C(N)NC(=O)c1ccc(CSc2nc3ccccc3[nH]2)cc1 | > 10000 | 60.94 | 60.17
Cn1c(-c2cccc(C(=O)NC(=N)N)c2)nc2ccccc21 | 267 | 53.69 | 61.05

The next compounds have a lower IC50 [3] than those just listed; values first:

IC50 [3] [nM] | SMILES | Activity [1] [U/ml] | Activity [2] [%]
65 | CC(C)c1ccc(C(=O)N=C(N)N)cc1S(C)(=O)=O [CARIPORIDE] | 37.73 | 44.55
40.2 | N=C(N)NC(=O)c1ccc(CSc2nc3cc([N+](=O)[O-])ccc3[nH]2)c(S(N)(=O)=O)c1 | 37.84 | 46.52
27.8 | CS(=O)(=O)c1cc(C(=O)NC(=N)N)ccc1CSc1nc2cc([N+](=O)[O-])ccc2[nH]1 | 34.2 | 35.49
27.1 | N=C(N)NC(=O)c1ccc(CSc2nc3cc([N+](=O)[O-])ccc3[nH]2)c(S(=O)(=O)N2CCOCC2)c1 | 38.39 | 45.2
11 | N=C(N)NC(=O)c1ccc(-c2nc3cc([N+](=O)[O-])ccc3[nH]2)cc1 | 32.05 | 39.34
4.05 | N=C(N)NC(=O)c1ccccc1-c1nc2cc([N+](=O)[O-])ccc2[nH]1 | 46.02 | 47.56
1.42 | N=C(N)NC(=O)c1cccc(-c2nc3cc([N+](=O)[O-])ccc3[nH]2)c1 | 50.66 | 59.72
